Experimental data published in US9931320B2, “Parasiticidal oral veterinary compositions comprising systemically-acting active agents, methods and uses thereof” (MERIAL INC., priority 2012, dated 2018).

Tests used:
[1] = tested on: ticks (Dermacentor variabilis); assay: Efficacy of soft chews against induced tick infestations on dogs (Example 2); assay type: in vivo; details: for % Reduction Ticks: soft chew of Table 6, once on Day 0, dogs; for Percent reduction against ticks: Table 6 soft chew, treated once on Day 0, dogs
Procedure: Sixteen beagles were studied to determine the effectiveness of a soft chewable veterinary composition comprising Compound A against induced infestations of Dermacentor variabilis and Ctenocephalides felis.
Four Treatment Groups containing four dogs each were formed. Dogs in Group 1 were untreated. […] All dogs were treated once on Day 0.
All dogs were infested with approximately 100 C. felis on Days −1, 8, 15, 22, 29, 35, 43, 57 and 71. All dogs were also infested with approximately 50 D. variabilis on Days −1, 7, 14, 21, 28, 34 and 42. Both ticks and fleas were counted upon removal on Days 2, 9, 16, 23, 30, 36 and 44. Fleas were counted upon removal for all Treatment Groups on Days 58 and 72.

[2] = tested on: Ixodes holocyclus; assay: Efficacy against induced Ixodes holocyclus infestations on dogs (Example 5)
[3] = Plasma concentration of Compound A in dogs after oral administration (FIG. 5); assay type: in vivo; details: soft chews at 20 mg/kg and 40 mg/kg compared with polyethylene glycol/alcohol solution at 25 mg/kg
Source text: Although the extremely high bioavailability of the chewable compositions is in part due to the physicochemical properties of the isoxazoline active agents, the high levels observed from the chewable compositions of the invention are made possible by the presence and combination of the non-active excipients, which ensure complete and predictable dissolution of the composition and maintain the active agents in solution in the digestive tract of the animal. […] This plot compares the plasma concentration of an isoxazoline active agent (Compound A) delivered from soft chewable compositions of the invention designed to deliver 20 mg/kg and 40 mg/kg of body weight with administration of a polyethylene glycol/alcohol solution of the active agent at 25 mg/kg body weight. […] This is particularly surprising since the chewable compositions are in the form of a solid that must disintegrate and completely release and solubilize the active agent for efficient absorption during digestion. One would expect the solution to provide higher bioavailability because the active agent is completely dissolved when administered.

[4] = tested on: Dermacentor variabilis; assay: Long lasting efficacy against D. variabilis on dogs (Example 6, Table 53); assay type: in vivo
Procedure: (§1) Forty two beagles were allotted to seven groups of six dogs each. Groups 1 and 2 served as untreated controls. Groups 3, 4 and 5 were each treated on Day 0 with three different compositions of the invention described in Tables 30, 31 and 32, respectively, containing Compound A in an amount to deliver a dose of about 20 mg/kg of body weight. Similarly, on Day 0, Groups 6 and 7 were each treated with the compositions described in Tables 30 and 32, respectively, containing Compound A to deliver a dose of about 20 mg/kg of body weight.
(§2) Dogs in Groups 1, 3, 4 and 5 were infested with approximately 50 A. americanum and dogs in Groups 2, 6 and 7 were infested with approximately 50 D. variabilis on Days −1, 42, 56, 70, 77, 84, 91 and 98. Dogs in Groups 1, 2, 3, 6 and 7 were also infested on Day 105. Ticks were counted upon removal at approximately 48 hours post treatment on Day 2 and 48 hours post infestation on Days 44, 58, 72, 79, 86, 93, 100 and 107. Tables 52 and 53 below show the exceptional long-lasting efficacy of the inventive compositions against A. americanum and D. variabilis.

[5] = tested on: Amblyomma americanum; assay: Long lasting efficacy against A. americanum on dogs (Example 6, Table 52); assay type: in vivo
Procedure: as §1, §2

O=C(CNC(=O)c1ccc(C2=NOC(c3cc(Cl)cc(C(F)(F)F)c3)(C(F)(F)F)C2)c2ccccc12)NCC(F)(F)F (stereo not shown) [Compound A, 4-[5-[3-chloro-5-(trifluoromethyl)phenyl]-4,5-dihydro-5-(trifluoromethyl)-3-isoxazolyl]-N-[2-oxo-2-[(2,2,2-trifluoroethyl)amino]ethyl]-1-naphthalenecarboxamide]
% Reduction Ticks ([1]; Group 2, approximately 1.5 mg/kg, Day 2): 100.0% | % Reduction Ticks ([1]; Group 2, approximately 1.5 mg/kg, Day 9): 99.2% | % Reduction Ticks ([1]; Group 2, approximately 1.5 mg/kg, Day 16): 100.0% | % Reduction Ticks ([1]; Group 2, approximately 1.5 mg/kg, Day 23): 92.1% | % Reduction Ticks ([1]; Group 2, approximately 1.5 mg/kg, Day 30): 99.5% | % Reduction Ticks ([1]; Group 2, approximately 1.5 mg/kg, Day 36): 82.4% | % Reduction Ticks ([1]; Group 2, approximately 1.5 mg/kg, Day 44): 68.3% | % Reduction Ticks ([1]; Group 3, approximately 2.5 mg/kg, Day 2): 100.0% | % Reduction Ticks ([1]; Group 3, approximately 2.5 mg/kg, Day 9): 100.0% | % Reduction Ticks ([1]; Group 3, approximately 2.5 mg/kg, Day 16): 99.1% | % Reduction Ticks ([1]; Group 3, approximately 2.5 mg/kg, Day 23): 97.2% | % Reduction Ticks ([1]; Group 3, approximately 2.5 mg/kg, Day 30): 94.3% | % Reduction Ticks ([1]; Group 3, approximately 2.5 mg/kg, Day 36): 96.9% | % Reduction Ticks ([1]; Group 3, approximately 2.5 mg/kg, Day 44): 88.1% | % Reduction Ticks ([1]; Group 4, approximately 3.5 mg/kg, Day 2): 100.0% | % Reduction Ticks ([1]; Group 4, approximately 3.5 mg/kg, Day 9): 100.0% | % Reduction Ticks ([1]; Group 4, approximately 3.5 mg/kg, Day 16): 99.5% | % Reduction Ticks ([1]; Group 4, approximately 3.5 mg/kg, Day 23): 100.0% | % Reduction Ticks ([1]; Group 4, approximately 3.5 mg/kg, Day 30): 98.1% | % Reduction Ticks ([1]; Group 4, approximately 3.5 mg/kg, Day 36): 91.9% | % Reduction Ticks ([1]; Group 4, approximately 3.5 mg/kg, Day 44): 84.7% | Percent reduction against ticks ([1]; through Day 36, Groups 3 and 4): > 90% | Percent reduction against ticks ([1]; through and including Day 30, all treatment groups (approx. 1.5, 2.5 or 3.5 mg/kg)): > 90% | Percent efficacy ([2]; 24 hours post infestation on Days 1, 8, 15 and 22, Table 10 soft chew, at least 2.5 mg/kg once on Day 0): at least 95.8% | Percent efficacy ([2]; 48 hours post infestation, all time points measured, once on Day 0, at least 2.5 mg/kg Compound A (Table 10), combination plus at least 0.5 mg/kg milbemycin oxime (Table 13)): at least 98.7% | Percent efficacy ([2]; 72 hours post infestation, all time points measured, once on Day 0, at least 2.5 mg/kg Compound A (Table 10), combination plus at least 0.5 mg/kg milbemycin oxime (Table 13)): at least 99.2% | Plasma concentration of Compound A [3]: significantly higher plasma levels | % Reduction Ticks ([4]; Group 6, composition of Table 30, about 20 mg/kg once on Day 0, dogs, Day 2): 100.0% | % Reduction Ticks ([4]; Group 6, composition of Table 30, about 20 mg/kg once on Day 0, dogs, Day 44): 100.0% | % Reduction Ticks ([4]; Group 6, composition of Table 30, about 20 mg/kg once on Day 0, dogs, Day 58): 99.5% | % Reduction Ticks ([4]; Group 6, composition of Table 30, about 20 mg/kg once on Day 0, dogs, Day 72): 100.0% | % Reduction Ticks ([4]; Group 6, composition of Table 30, about 20 mg/kg once on Day 0, dogs, Day 79): 98.8% | % Reduction Ticks ([4]; Group 6, composition of Table 30, about 20 mg/kg once on Day 0, dogs, Day 86): 100.0% | % Reduction Ticks ([4]; Group 6, composition of Table 30, about 20 mg/kg once on Day 0, dogs, Day 93): 98.9% | % Reduction Ticks ([4]; Group 6, composition of Table 30, about 20 mg/kg once on Day 0, dogs, Day 100): 99.4% | % Reduction Ticks ([4]; Group 6, composition of Table 30, about 20 mg/kg once on Day 0, dogs, Day 107): 99.4% | % Reduction Ticks ([4]; Group 7, composition of Table 32, about 20 mg/kg once on Day 0, dogs, Day 2): 100.0% | % Reduction Ticks ([4]; Group 7, composition of Table 32, about 20 mg/kg once on Day 0, dogs, Day 44): 100.0% | % Reduction Ticks ([4]; Group 7, composition of Table 32, about 20 mg/kg once on Day 0, dogs, Day 58): 100.0% | % Reduction Ticks ([4]; Group 7, composition of Table 32, about 20 mg/kg once on Day 0, dogs, Day 72): 100.0% | % Reduction Ticks ([4]; Group 7, composition of Table 32, about 20 mg/kg once on Day 0, dogs, Day 79): 100.0% | % Reduction Ticks ([4]; Group 7, composition of Table 32, about 20 mg/kg once on Day 0, dogs, Day 86): 100.0% | % Reduction Ticks ([4]; Group 7, composition of Table 32, about 20 mg/kg once on Day 0, dogs, Day 93): 97.9% | % Reduction Ticks ([4]; Group 7, composition of Table 32, about 20 mg/kg once on Day 0, dogs, Day 100): 100.0% | % Reduction Ticks ([4]; Group 7, composition of Table 32, about 20 mg/kg once on Day 0, dogs, Day 107): 100.0% | % Reduction Ticks ([5]; Group 3, composition of Table 30, about 20 mg/kg once on Day 0, dogs, Day 2): 100.0% | % Reduction Ticks ([5]; Group 3, composition of Table 30, about 20 mg/kg once on Day 0, dogs, Day 44): 98.4% | % Reduction Ticks ([5]; Group 3, composition of Table 30, about 20 mg/kg once on Day 0, dogs, Day 58): 98.8% | % Reduction Ticks ([5]; Group 3, composition of Table 30, about 20 mg/kg once on Day 0, dogs, Day 72): 99.5% | % Reduction Ticks ([5]; Group 3, composition of Table 30, about 20 mg/kg once on Day 0, dogs, Day 79): 94.4% | % Reduction Ticks ([5]; Group 3, composition of Table 30, about 20 mg/kg once on Day 0, dogs, Day 86): 98.9% | % Reduction Ticks ([5]; Group 3, composition of Table 30, about 20 mg/kg once on Day 0, dogs, Day 93): 99.5% | % Reduction Ticks ([5]; Group 3, composition of Table 30, about 20 mg/kg once on Day 0, dogs, Day 100): 95.6% | % Reduction Ticks ([5]; Group 3, composition of Table 30, about 20 mg/kg once on Day 0, dogs, Day 107): 93.4% | % Reduction Ticks ([5]; Group 4, composition of Table 31, about 20 mg/kg once on Day 0, dogs, Day 2): 100.0% | % Reduction Ticks ([5]; Group 4, composition of Table 31, about 20 mg/kg once on Day 0, dogs, Day 44): 99.4% | % Reduction Ticks ([5]; Group 4, composition of Table 31, about 20 mg/kg once on Day 0, dogs, Day 58): 99.4% | % Reduction Ticks ([5]; Group 4, composition of Table 31, about 20 mg/kg once on Day 0, dogs, Day 72): 97.7% | % Reduction Ticks ([5]; Group 4, composition of Table 31, about 20 mg/kg once on Day 0, dogs, Day 79): 88.6% | % Reduction Ticks ([5]; Group 4, composition of Table 31, about 20 mg/kg once on Day 0, dogs, Day 86): 97.5% | % Reduction Ticks ([5]; Group 4, composition of Table 31, about 20 mg/kg once on Day 0, dogs, Day 93): 97.7% | % Reduction Ticks ([5]; Group 4, composition of Table 31, about 20 mg/kg once on Day 0, dogs, Day 100): 90.9% | % Reduction Ticks ([5]; Group 5, composition of Table 32, about 20 mg/kg once on Day 0, dogs, Day 2): 100.0% | % Reduction Ticks ([5]; Group 5, composition of Table 32, about 20 mg/kg once on Day 0, dogs, Day 44): 100.0% | % Reduction Ticks ([5]; Group 5, composition of Table 32, about 20 mg/kg once on Day 0, dogs, Day 58): 99.5% | % Reduction Ticks ([5]; Group 5, composition of Table 32, about 20 mg/kg once on Day 0, dogs, Day 72): 100.0% | % Reduction Ticks ([5]; Group 5, composition of Table 32, about 20 mg/kg once on Day 0, dogs, Day 79): 98.8% | % Reduction Ticks ([5]; Group 5, composition of Table 32, about 20 mg/kg once on Day 0, dogs, Day 86): 97.8% | % Reduction Ticks ([5]; Group 5, composition of Table 32, about 20 mg/kg once on Day 0, dogs, Day 93): 98.2% | % Reduction Ticks ([5]; Group 5, composition of Table 32, about 20 mg/kg once on Day 0, dogs, Day 100): 87.8%
